# Publication PMC10718076, “1,2-Disubstituted bicyclo[2.1.1]hexanes as saturated bioisosteres of ortho-substituted benzene” (Chemical Science, 2023)
# Assay: physchem
# Conditions: pH 7.4, LogD, pH 7.4
row,logD at 1 h,Compound
1,4.09,"Cn1cc(C(=O)Nc2ccc(F)cc2-c2ccc(Cl)c(Cl)c2)c(C(F)F)n1 [Bixafen, bixafen]"
2,3.58,O=C(NC1CC2CC1(c1ccc(Cl)cc1)C2)c1cccnc1Cl (stereo not shown) [Compound 28]
3,4.1,Cn1cc(C(=O)NC2CC3CC2(c2ccc(Cl)c(Cl)c2)C3)c(C(F)F)n1 (stereo not shown) [Compound 29]
4,3.61,Cn1cc(C(=O)NC2CC3CC2(c2cc(F)c(F)c(F)c2)C3)c(C(F)F)n1 (stereo not shown) [Compound 30]
